PubChem BioAssay (NCI)
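Where inhibition never reached the appropriate level, the endpoint shown equals the highest concentration tested. Otherwise, values were interpolated linearly from a five-concentration, 48-hour dose response in 96-well plates. GI50: concentration for 50% inhibition of growth. TGI denotes the concentration required for complete inhibition of growth.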

Key:
Experiment in all cases: NCI tumour cell line growth inhibition, 48 h
MCF7 breast = test system: MCF7 breast
HL-60(TB) leukemia = test system: HL-60(TB) leukemia
SF-295 CNS = test system: SF-295 CNS
SF-539 CNS = test system: SF-539 CNS
NCI-H226 lung = test system: NCI-H226 lung
A549 NSCLC = test system: A549 NSCLC
MDA-MB-435 = test system: MDA-MB-435
786-0 renal = test system: 786-0 renal
NCI-H460 lung = test system: NCI-H460 lung
PC-3 prostate = test system: PC-3 prostate
SK-MEL-5 melanoma = test system: SK-MEL-5 melanoma
SK-MEL-28 melanoma = test system: SK-MEL-28 melanoma
HT29 colon = test system: HT29 colon
SW-620 colon = test system: SW-620 colon
U251 CNS = test system: U251 CNS
KM12 colon = test system: KM12 colon
EKVX NSCLC = test system: EKVX NSCLC
HOP-92 NSCLC = test system: HOP-92 NSCLC
MDA-MB-231 breast = test system: MDA-MB-231 breast
A498 renal = test system: A498 renal
SK-OV-3 ovarian = test system: SK-OV-3 ovarian
UACC-62 melanoma = test system: UACC-62 melanoma
IGROV1 ovarian = test system: IGROV1 ovarian
SNB-19 CNS = test system: SNB-19 CNS
NCI-H522 lung = test system: NCI-H522 lung
TK-10 renal = test system: TK-10 renal
MOLT-4 leukemia = test system: MOLT-4 leukemia
CAKI-1 renal = test system: CAKI-1 renal
K-562 leukemia = test system: K-562 leukemia
OVCAR-8 ovarian = test system: OVCAR-8 ovarian
SN12C renal = test system: SN12C renal
T-47D breast = test system: T-47D breast
SF-268 CNS = test system: SF-268 CNS
HS 578T breast = test system: HS 578T breast
RPMI-8226 leukemia = test system: RPMI-8226 leukemia
RXF 393 renal = test system: RXF 393 renal
HCT-15 colon = test system: HCT-15 colon
HOP-62 NSCLC = test system: HOP-62 NSCLC
M14 melanoma = test system: M14 melanoma
OVCAR-3 ovarian = test system: OVCAR-3 ovarian
SK-MEL-2 melanoma = test system: SK-MEL-2 melanoma
HCT-116 colon = test system: HCT-116 colon
BT-549 breast = test system: BT-549 breast
DU-145 prostate = test system: DU-145 prostate
ACHN renal = test system: ACHN renal
SNB-75 CNS = test system: SNB-75 CNS
COLO 205 colon = test system: COLO 205 colon
LOX IMVI melanoma = test system: LOX IMVI melanoma
OVCAR-4 ovarian = test system: OVCAR-4 ovarian
CCRF-CEM leukemia = test system: CCRF-CEM leukemia
UACC-257 melanoma = test system: UACC-257 melanoma
SR leukemia = test system: SR leukemia
UO-31 renal = test system: UO-31 renal
OVCAR-5 ovarian = test system: OVCAR-5 ovarian
MALME-3M melanoma = test system: MALME-3M melanoma
HCC-2998 colon = test system: HCC-2998 colon
NCI-H23 lung = test system: NCI-H23 lung
NCI/ADR-RES ovarian = test system: NCI/ADR-RES ovarian

## CCOC(=O)c1ccc(NC(=O)c2cccc(NC3=C(Cl)C(=O)N(Cc4ccccc4)C3=O)c2)cc1
MCF7 breast
  GI50: 51.3 µM
  TGI: > 100 µM
HL-60(TB) leukemia
  GI50: 17.2 µM
  TGI: 45.9 µM
SF-295 CNS
  GI50: > 100 µM
  TGI: > 100 µM
SF-539 CNS
  GI50: > 100 µM
  TGI: > 100 µM
NCI-H226 lung
  GI50: > 100 µM
  TGI: > 100 µM
A549 NSCLC
  GI50: > 100 µM
  TGI: > 100 µM
MDA-MB-435
  GI50: > 100 µM
  TGI: > 100 µM
786-0 renal
  GI50: > 100 µM
  TGI: > 100 µM
NCI-H460 lung
  GI50: > 100 µM
  TGI: > 100 µM
PC-3 prostate
  GI50: > 100 µM
  TGI: > 100 µM
SK-MEL-5 melanoma
  GI50: > 100 µM
  TGI: > 100 µM
SK-MEL-28 melanoma
  GI50: > 100 µM
  TGI: > 100 µM
HT29 colon
  GI50: > 100 µM
  TGI: > 100 µM
SW-620 colon
  GI50: > 100 µM
  TGI: > 100 µM
U251 CNS
  GI50: > 100 µM
  TGI: > 100 µM
KM12 colon
  GI50: > 100 µM
  TGI: > 100 µM
EKVX NSCLC
  GI50: > 100 µM
  TGI: > 100 µM
HOP-92 NSCLC
  GI50: 78.8 µM
  TGI: > 100 µM
MDA-MB-231 breast
  GI50: 92 µM
  TGI: > 100 µM
A498 renal
  GI50: > 100 µM
  TGI: > 100 µM
SK-OV-3 ovarian
  GI50: > 100 µM
  TGI: > 100 µM
UACC-62 melanoma
  GI50: > 100 µM
  TGI: > 100 µM
IGROV1 ovarian
  GI50: 65 µM
  TGI: > 100 µM
SNB-19 CNS
  GI50: > 100 µM
  TGI: > 100 µM
NCI-H522 lung
  GI50: 62.9 µM
  TGI: > 100 µM
TK-10 renal
  GI50: > 100 µM
  TGI: > 100 µM
MOLT-4 leukemia
  GI50: 28.1 µM
  TGI: 99.2 µM
CAKI-1 renal
  GI50: > 100 µM
  TGI: > 100 µM
K-562 leukemia
  GI50: 33.3 µM
  TGI: > 100 µM
OVCAR-8 ovarian
  GI50: > 100 µM
  TGI: > 100 µM
SN12C renal
  GI50: > 100 µM
  TGI: > 100 µM
T-47D breast
  GI50: > 100 µM
  TGI: > 100 µM
SF-268 CNS
  GI50: 42.3 µM
  TGI: > 100 µM
HS 578T breast
  GI50: > 100 µM
  TGI: > 100 µM
RPMI-8226 leukemia
  GI50: 37.5 µM
  TGI: > 100 µM
RXF 393 renal
  GI50: > 100 µM
  TGI: > 100 µM
HCT-15 colon
  GI50: > 100 µM
  TGI: > 100 µM
HOP-62 NSCLC
  GI50: > 100 µM
  TGI: > 100 µM
M14 melanoma
  GI50: > 100 µM
  TGI: > 100 µM
OVCAR-3 ovarian
  GI50: > 100 µM
  TGI: > 100 µM
SK-MEL-2 melanoma
  GI50: > 100 µM
  TGI: > 100 µM
HCT-116 colon
  GI50: > 100 µM
  TGI: > 100 µM
BT-549 breast
  GI50: > 100 µM
  TGI: > 100 µM
DU-145 prostate
  GI50: > 100 µM
  TGI: > 100 µM
ACHN renal
  GI50: > 100 µM
  TGI: > 100 µM
SNB-75 CNS
  GI50: > 100 µM
  TGI: > 100 µM
COLO 205 colon
  GI50: > 100 µM
  TGI: > 100 µM
LOX IMVI melanoma
  GI50: 60.3 µM
  TGI: > 100 µM
OVCAR-4 ovarian
  GI50: > 100 µM
  TGI: > 100 µM
CCRF-CEM leukemia
  GI50: 15.7 µM
  TGI: 65.9 µM
UACC-257 melanoma
  GI50: > 100 µM
  TGI: > 100 µM

## CC(=O)c1ccc(Oc2c3ccccc3nc3occc23)cc1
MCF7 breast
  GI50: 4.08 µM
  TGI: > 100 µM
HL-60(TB) leukemia
  GI50: 8.43 µM
  TGI: > 100 µM
SF-295 CNS
  GI50: 2.02 µM
  TGI: 12.5 µM
SF-539 CNS
  GI50: 2.53 µM
  TGI: 8.41 µM
NCI-H226 lung
  GI50: 15.1 µM
  TGI: 90.3 µM
A549 NSCLC
  GI50: 61.9 µM
  TGI: > 100 µM
SR leukemia
  GI50: 0.842 µM
  TGI: > 100 µM
MDA-MB-435
  GI50: 2.02 µM
  TGI: 5.41 µM
786-0 renal
  GI50: 33.3 µM
  TGI: > 100 µM
UO-31 renal
  GI50: 60.5 µM
  TGI: > 100 µM
NCI-H460 lung
  GI50: 23.3 µM
  TGI: > 100 µM
PC-3 prostate
  GI50: 9.77 µM
  TGI: > 100 µM
SK-MEL-5 melanoma
  GI50: 8.75 µM
  TGI: > 100 µM
SK-MEL-28 melanoma
  GI50: 41.2 µM
  TGI: > 100 µM
HT29 colon
  GI50: 7.13 µM
  TGI: > 100 µM
SW-620 colon
  GI50: 4.87 µM
  TGI: > 100 µM
U251 CNS
  GI50: 4.21 µM
  TGI: > 100 µM
KM12 colon
  GI50: 9.12 µM
  TGI: > 100 µM
EKVX NSCLC
  GI50: 73.3 µM
  TGI: > 100 µM
HOP-92 NSCLC
  GI50: 31.6 µM
  TGI: > 100 µM
OVCAR-5 ovarian
  GI50: 27.3 µM
  TGI: > 100 µM
A498 renal
  GI50: 28.1 µM
  TGI: 80.6 µM
SK-OV-3 ovarian
  GI50: 59 µM
  TGI: > 100 µM
UACC-62 melanoma
  GI50: 2.11 µM
  TGI: 7.95 µM
IGROV1 ovarian
  GI50: 55.7 µM
  TGI: > 100 µM
SNB-19 CNS
  GI50: 7.98 µM
  TGI: > 100 µM
NCI-H522 lung
  GI50: 4.68 µM
  TGI: > 100 µM
TK-10 renal
  GI50: 11.4 µM
  TGI: > 100 µM
MALME-3M melanoma
  GI50: 4.14 µM
  TGI: > 100 µM
MOLT-4 leukemia
  GI50: 5.71 µM
  TGI: > 100 µM
K-562 leukemia
  GI50: 2.93 µM
  TGI: > 100 µM
OVCAR-8 ovarian
  GI50: 3.33 µM
  TGI: > 100 µM
T-47D breast
  GI50: 8.21 µM
  TGI: > 100 µM
SF-268 CNS
  GI50: 7.02 µM
  TGI: > 100 µM
HS 578T breast
  GI50: 12.4 µM
  TGI: 75.5 µM
RPMI-8226 leukemia
  GI50: 4.63 µM
  TGI: > 100 µM
RXF 393 renal
  GI50: 6.26 µM
  TGI: 56.7 µM
HCC-2998 colon
  GI50: 6.35 µM
  TGI: 34 µM
HCT-15 colon
  GI50: 2.39 µM
  TGI: 72.4 µM
HOP-62 NSCLC
  GI50: > 100 µM
  TGI: > 100 µM
M14 melanoma
  GI50: 6.81 µM
  TGI: > 100 µM
OVCAR-3 ovarian
  GI50: 2.19 µM
  TGI: 6.58 µM
NCI-H23 lung
  GI50: 18.9 µM
  TGI: > 100 µM
SK-MEL-2 melanoma
  GI50: > 100 µM
  TGI: > 100 µM
HCT-116 colon
  GI50: 7.35 µM
  TGI: > 100 µM
BT-549 breast
  GI50: 47.3 µM
  TGI: > 100 µM
NCI/ADR-RES ovarian
  GI50: 2.52 µM
  TGI: 9.81 µM
DU-145 prostate
  GI50: 15.6 µM
  TGI: > 100 µM
ACHN renal
  GI50: 3.57 µM
  TGI: > 100 µM
SNB-75 CNS
  GI50: 21.1 µM
  TGI: > 100 µM
COLO 205 colon
  GI50: 24.1 µM
  TGI: > 100 µM
LOX IMVI melanoma
  GI50: 6.35 µM
  TGI: > 100 µM
OVCAR-4 ovarian
  GI50: 46.9 µM
  TGI: > 100 µM
CCRF-CEM leukemia
  GI50: 4.8 µM
  TGI: > 100 µM
UACC-257 melanoma
  GI50: 4.85 µM
  TGI: > 100 µM
